Source: article PMC10712727, “Safety, Tolerability, and Pharmacokinetics of Senaparib, a Novel PARP1/2 Inhibitor, in Chinese Patients With Advanced Solid Tumors: A Phase I Trial” (The Oncologist, 2023)
Entries after “also recorded” stand apart in the source; their conditions may differ.

Tested on: patients with advanced solid tumors
Experiment: Dose-limiting toxicities, MTD and RP2D determination (modified 3 + 3 dose escalation)
Assay type: in vivo
Description: Dose escalation was conducted using a modified Fibonacci 3 + 3 method (Supplementary Fig. S1).[17] Patients were administered oral senaparib from a planned starting dose of 2 mg once daily (QD), with preliminary dose escalation to 120 mg via nine dose groups, in order of their entry into the study. At a given dose level, each patient received a single dose of senaparib followed by a 7-day washout period. They then entered a continuous dosing period to confirm the safety and PK profile, in which they received senaparib QD from day 1 to day 21 of each 3-week cycle. Progression to the next higher dose required approval from the Data Safety Monitoring Committee (DSMC) upon review of the safety and PK data of the previous dose. […]
DLTs were predefined toxicities (Supplementary Table S2) recorded over the 7 days following the single-dose administration of senaparib and during the first treatment cycle (day 1-day 21) for each dose group in the dose-escalation period only. […] Plasma concentrations of senaparib were determined using high-performance liquid chromatography-tandem mass spectrometry. Tumor response was assessed every 6 weeks per RECIST v1.1,[16] recording objective response rate (ORR), disease control rate (DCR), duration of response (DOR), and progression-free survival (PFS) by dose level for all patients and for those harboring BRCA^mut+ tumors.

## O=C(c1cc(Cn2c(=O)[nH]c(=O)c3c(F)cccc32)ccc1F)N1CCN(c2ncccn2)CC1 [Senaparib]
DLT observation period, dose escalation, 2-120 mg QD and 50 mg BID
  Dose-limiting toxicities (DLTs): No dose-limiting toxicities were observed; also recorded: No DLTs were observed
Doses up to 120 mg QD
  Maximum tolerated dose (MTD): not reached
